Experimental data as given in patent US20160166556A1, “METHODS OF TREATING PULMONARY HYPERTENSION” (Gilead Sciences, Inc., priority 2014, published 2016).

System: ASK1 pathway (p38 phosphorylation) in the rat RV
Experiment: Auranofin model of oxidative stress-induced ASK1 activation in the rat right ventricle (phospho-p38 Western blot)
Assay type: in vivo, Sprague-Dawley rats
Description: IP90 was used as a loading control.
In this study, the auranofin model of oxidative stress-induced ASK1 activation was used to determine the effects of ASK1 inhibitor in preventing or inhibiting oxidative stress-induced activation of the ASK1 pathway in the rat RV. ASK1 is normally bound and repressed by the thiol-containing antioxidant protein thioredoxin 1 (Trx1). […] When administered in vivo, auranofin results in ASK1-mediated phosphorylation of p38MAPK, which in turn promotes induction of cytokine/chemokine gene expression.
Rats were then challenged with a single intraperitoneal (ip) injection of auranofin at 30 mg/kg to induce oxidative stress. The levels of phosphorylated p38 in RV lysates were evaluated by Western blot analysis and normalized to IP90.

SMILES | auranofin-induced p38 phosphorylation in RV (single oral dose 0.3, 1, 3 or 10 mg/kg, then auranofin 30 mg/kg ip) | normalized level of phosphorylated p38 in RV (p-p38/IP90) (auranofin 30 mg/kg ip alone, mean±SEM, vehicle group 1.0±0.1)
Cc1cc(F)c(C(=O)Nc2cccc(-c3nncn3C(C)C)n2)cc1-n1cnc(C2CC2)c1 [Compound 3, 5-(4-cyclopropyl-1H-imidazol-1-yl)-2-fluoro-N-(6-(4-isopropyl-4H-1,2,4-triazol-3-yl)pyridin-2-yl)-4-methylbenzamide] | dose-dependent reduction | 
CC[PH](CC)(CC)[Au][S][C@@H]1O[C@H](COC(C)=O)[C@@H](OC(C)=O)[C@H](OC(C)=O)[C@H]1OC(C)=O [auranofin, 2,3,4,6-tetra-O-acetyl-1-thio-β-d-glucopyranosato-S-(triethylphosphine) gold] |  | 2.0±0.2
